Tested on: human microvascular ECs of lung blood vessel origin (HMVEC-LBl)
Assay: modified Boyden chamber, thrombin-stimulated FITC-dextran permeability, HMVEC-LBl
Type: cell-based
Conditions: VT 10–20 ng/mL, Ang1 200–400 ng/mL, 30 min pretreatment, FITC fluorescence ex/em 490/520 nm, n = 3–5 inserts, unpaired t-test, Fig1A
Protocol: ECs were first treated with Vasculotide (VT), PBS (vehicle/negative control), Ang1 (positive control), PEG-Cys (polyethylene glycol backbone), T7c (non-PEGylated CHHHRHSF peptides), or VT in the presence of 100-fold molar excess of T7c. The concentrations used, 10–20 ng/mL VT and 200–400 ng/mL Ang1, are estimated molar equivalents (0.71–1.43 nM). Thirty minutes later, ECs were stimulated with thrombin, 0.1% BSA (vehicle/negative control), or EDTA (positive control). Another 30mins later, the amount of FITC-dextran diffusion into the lower chambers (A, D) provides a measure of endothelial permeability. CMTPX-labeled tumor cells (TCs) were then dispensed into inserts, and the amount of TC fluorescence emitting from the underside of insert membranes after 20 h (B–C) or 28 h (E) reflects the efficiency of trans-endothelial TC migration. […] Three experiments (twice with HMVEC-LBl and once with HMVEC-DBl) were run with n = 3–5 inserts (independent biological replicates) per group and analyzed by two-sampled unpaired t-tests. […]
Endothelial cells (ECs) were grown on cell culture inserts with uncoated 8-μm-pore PET filter membranes to 100% confluency. […] After 30 min of thrombin stimulation or 4–6 h of TC-CM stimulation, FITC fluorescence (ex/em = 490/520 nm) was measured from a 50 μl sample of the lower chamber media. […]

Molecule	transendothelial permeability of FITC-dextran
CHHHRHSF [Vasculotide, 4-armed maleimide-functionalized polyethylene glycol (PEG) backbone to link together four cysteine-capped T7 peptides, that is, CHHHRHSF]	counteract thrombin-stimulated increases in transendothelial permeability of FITC-dextran (P < 0.05
recombinant human Ang1 (rhAng1) (ligand, UniProt Q15389 16-498, looked up, angiopoietin-1, human, recombinant; also called angiopoietin-1; source: bought: R&D Systems (named for the Boyden chamber experiments)) HIGCSNQRRSPENSGRRYNRIQHGQCAYTFILPEHDGNCRESTTDQYNTNALQRDAPHVEPDFSSQKLQHLEHVMENYTQWLQKLENYIVENMKSEMAQIQQNAVQNHTATMLEIGTSLLSQTAEQTRKLTDVETQVLNQTSRLEIQLLENSLSTYKLEKQLLQQTNEILKIHEKNSLLEHKILEMEGKHKEELDTLKEEKENLQGLVTRQTYIIQELEKQLNRATTNNSVLQKQQLELMDTVHNLVNLCTKEGVLLKGGKREEEKPFRDCADVYQAGFNKSGIYTIYINNMPEPKKVFCNMDVNGGGWTVIQHREDGSLDFQRGWKEYKMGFGNPSGEYWLGNEFIFAITSQRQYMLRIELMDWEGNRAYSQYDRFHIGNEKQNYRLYLKGHTGTAGKQSSLILHGADFSTKDADNDNCMCKCALMLTGGWWFDACGPSNLNGMFYTAGQNHGKLNGIKWHYFKGPSYSLRSTTMMIRPLDF	counteract thrombin induction of trans-endothelium macromolecular permeability

— PMC4459817, “Vasculotide reduces endothelial permeability and tumor cell extravasation in the absence of binding to or agonistic activation of Tie2” (EMBO Molecular Medicine, 2015)
